The target in assay [1] is T1, mGlu4 (Homo sapiens, UniProt Q14833). To be noted: cited from earlier work.
Assay [2] deals with Tau-EGFP mouse embryonic fibroblasts transduced with Ascl1/Myt1l. As to the kind of experiment: High-throughput compound screening for Tau-EGFP expression and neuronal morphology. It counts as cell-based. Particulars: individual compound plus doxycycline 7 days, analysed day 14; hits confirmed dose-dependently in larger well format. The method, then:
Infected Tau-EGFP MEFs in 150-mm dishes were dissociated by trypsinization and plated to 384-well plates with 4×10^3 cells per well in 50 μl of N2B27 medium plus 2.0 μg ml^−1 doxycycline by using Multi-drop (Thermo Fisher). Fifty nanoliters of compounds from a collection of known drugs (˜3,000) were added to each well of infected cells by using BioMek (BD). After 3 days of compound treatment, […] N2B27 media were added to each well to keep the medium volume at 55-60 μl. The total period of compound treatment is 7 days. After that, medium was replaced with neuronal maturation medium for another 7 days. The cells were then fixed for immunostaining on Day 14. The high-throughput imaging was performed by using InCell 2000. Finally, the screening result was analyzed by InCell Workstation 2000.
To conduct the chemical screening, Tau-EGFP mouse embryonic fibroblasts were used that were transduced with an Ascl1/Myt1l coding region that was under control of tet operator. These cells were plated at 4,000 cells/well in 384-well plates containing chemically defined N2B27 media. After overnight incubation, the cells were treated for seven days with doxycycline to induce Ascl1/Myt1l expression and also contacted with individual compounds selected from a drug collection containing over 3000 compounds. The media was then replaced with compound-free standard neuronal media. Cells were fixed at day 14 then analyzed for Tau-EGFP expression and neuronal morphology by high content imaging (FIG. 4A and FIG. 3).

A further assay deals with mGlu receptors. To be noted: cited from earlier work.
Assay [3] deals with HDAC activity in HeLa extracts. To be noted: read-out: IC50 for inhibition of HDAC activity; cited from earlier work.
Assay [4] deals with histone acetyltransferase p300 (Homo sapiens, UniProt Q09472). Particulars: simplified analog of CTPB; cited from earlier work.
histone acetyltransferase p300, sequence (Q09472 whole entry, species assumed): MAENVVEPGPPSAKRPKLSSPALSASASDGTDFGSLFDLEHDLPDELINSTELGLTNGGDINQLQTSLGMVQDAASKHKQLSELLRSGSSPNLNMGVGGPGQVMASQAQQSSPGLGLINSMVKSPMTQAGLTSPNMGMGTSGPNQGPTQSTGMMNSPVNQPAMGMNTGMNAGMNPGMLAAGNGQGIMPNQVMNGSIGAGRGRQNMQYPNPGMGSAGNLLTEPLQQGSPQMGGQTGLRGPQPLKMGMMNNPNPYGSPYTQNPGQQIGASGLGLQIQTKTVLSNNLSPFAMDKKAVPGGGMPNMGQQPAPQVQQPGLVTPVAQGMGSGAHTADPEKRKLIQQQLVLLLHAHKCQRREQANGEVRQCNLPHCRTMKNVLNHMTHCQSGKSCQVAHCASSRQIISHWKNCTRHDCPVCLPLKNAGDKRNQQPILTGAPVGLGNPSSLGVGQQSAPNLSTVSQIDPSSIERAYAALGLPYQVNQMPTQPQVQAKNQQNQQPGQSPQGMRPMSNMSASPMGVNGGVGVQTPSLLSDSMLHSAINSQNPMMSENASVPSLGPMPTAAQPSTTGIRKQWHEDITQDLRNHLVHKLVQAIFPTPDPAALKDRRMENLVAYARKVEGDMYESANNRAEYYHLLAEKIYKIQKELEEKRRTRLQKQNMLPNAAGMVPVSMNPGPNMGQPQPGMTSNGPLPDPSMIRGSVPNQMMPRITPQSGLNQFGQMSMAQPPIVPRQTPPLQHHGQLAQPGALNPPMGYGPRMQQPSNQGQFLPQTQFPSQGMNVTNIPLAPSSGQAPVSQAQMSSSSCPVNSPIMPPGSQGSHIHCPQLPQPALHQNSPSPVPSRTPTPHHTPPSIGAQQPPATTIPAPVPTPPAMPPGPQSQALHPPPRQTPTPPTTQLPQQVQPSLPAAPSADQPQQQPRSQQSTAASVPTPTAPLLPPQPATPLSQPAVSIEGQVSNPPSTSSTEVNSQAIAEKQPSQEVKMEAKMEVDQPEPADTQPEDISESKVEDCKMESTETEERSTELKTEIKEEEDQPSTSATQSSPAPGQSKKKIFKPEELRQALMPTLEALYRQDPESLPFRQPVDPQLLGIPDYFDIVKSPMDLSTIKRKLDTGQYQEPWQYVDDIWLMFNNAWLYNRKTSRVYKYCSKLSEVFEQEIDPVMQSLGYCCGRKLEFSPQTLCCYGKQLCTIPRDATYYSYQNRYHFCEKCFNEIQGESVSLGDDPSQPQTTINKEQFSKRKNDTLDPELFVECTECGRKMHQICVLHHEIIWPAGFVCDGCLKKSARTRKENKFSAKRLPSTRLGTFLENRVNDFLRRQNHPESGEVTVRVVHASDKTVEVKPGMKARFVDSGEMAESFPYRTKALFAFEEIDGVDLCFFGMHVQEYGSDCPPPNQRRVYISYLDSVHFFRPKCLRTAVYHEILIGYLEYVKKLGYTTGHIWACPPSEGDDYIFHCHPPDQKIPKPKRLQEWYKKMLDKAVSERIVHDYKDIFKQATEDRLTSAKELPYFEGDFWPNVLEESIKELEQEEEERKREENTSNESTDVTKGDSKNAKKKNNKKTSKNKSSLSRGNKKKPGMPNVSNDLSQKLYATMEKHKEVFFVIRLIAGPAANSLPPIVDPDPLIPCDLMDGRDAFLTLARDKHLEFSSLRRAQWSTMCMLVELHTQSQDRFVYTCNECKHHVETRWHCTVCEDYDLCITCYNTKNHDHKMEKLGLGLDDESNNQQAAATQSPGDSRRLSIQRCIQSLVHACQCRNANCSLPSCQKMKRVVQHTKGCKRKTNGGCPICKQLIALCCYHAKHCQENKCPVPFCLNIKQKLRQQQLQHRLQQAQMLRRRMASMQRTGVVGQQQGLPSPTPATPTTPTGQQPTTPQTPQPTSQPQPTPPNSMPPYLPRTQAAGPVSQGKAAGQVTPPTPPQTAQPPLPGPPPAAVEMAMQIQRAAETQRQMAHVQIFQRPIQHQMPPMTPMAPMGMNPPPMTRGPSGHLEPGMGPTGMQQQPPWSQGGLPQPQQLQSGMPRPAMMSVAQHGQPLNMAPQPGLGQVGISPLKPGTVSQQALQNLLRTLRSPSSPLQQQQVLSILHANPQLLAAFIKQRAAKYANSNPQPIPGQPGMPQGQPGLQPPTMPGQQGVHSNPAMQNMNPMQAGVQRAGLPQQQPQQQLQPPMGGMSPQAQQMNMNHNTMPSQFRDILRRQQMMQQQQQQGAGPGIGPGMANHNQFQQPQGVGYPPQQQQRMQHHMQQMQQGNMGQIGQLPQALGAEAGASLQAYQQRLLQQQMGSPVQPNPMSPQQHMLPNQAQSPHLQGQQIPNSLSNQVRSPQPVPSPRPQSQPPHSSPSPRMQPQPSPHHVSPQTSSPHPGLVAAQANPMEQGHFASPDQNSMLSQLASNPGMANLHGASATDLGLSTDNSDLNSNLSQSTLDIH
The test system of assay [5] is histone deacetylases (HDACs). Particulars: read-out: IC50 (histone deacetylase), cited from earlier work.
The target of a further assay is SAPK2/p38 (Homo sapiens, UniProt Q16539). To be noted: inhibitor of CK1 and ALK5; cited from earlier work.
SAPK2/p38, sequence (Q16539 whole entry): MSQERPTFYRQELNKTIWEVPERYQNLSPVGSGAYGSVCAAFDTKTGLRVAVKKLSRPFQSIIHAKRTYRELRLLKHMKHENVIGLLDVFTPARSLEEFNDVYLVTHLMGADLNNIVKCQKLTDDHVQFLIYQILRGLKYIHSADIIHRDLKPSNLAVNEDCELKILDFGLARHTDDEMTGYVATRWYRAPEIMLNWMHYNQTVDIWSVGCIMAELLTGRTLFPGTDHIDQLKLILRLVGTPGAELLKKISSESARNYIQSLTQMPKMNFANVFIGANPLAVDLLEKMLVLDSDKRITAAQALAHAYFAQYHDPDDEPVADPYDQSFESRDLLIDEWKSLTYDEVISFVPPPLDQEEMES
The next assay concerns the target adenylate cyclase 1 (Homo sapiens, UniProt Q08828). To be noted: cited from earlier work.
The target in assay [6] is rat Group II mGlu receptor. Particulars: read-out: IC50 against rat Group II mGlu receptor; cited from earlier work.
In a further assay the target is various mGlu receptors. Particulars: Ki depends on which receptor is bound; cited from earlier work.
The subject of a further assay is mGlu(3) receptors. To be noted: rodent and human; cited from earlier work.
The next assay relates to mGlu(2) receptors. Particulars: rodent and human; cited from earlier work.
Assay [7] addresses T1, mGlu4. Particulars: read-out: EC50 against mGlu4; cited from earlier work.
For assay [8], the system named is STRC2-Ascl1/Myt1l neuronal cells from MEFs. As to the kind of experiment: Patch clamp electrophysiology of STRC2-Ascl1/Myt1l induced neuronal cells. It counts as cell-based, mouse. A general note: Patch clamp records ionic current or voltage across a cell membrane.
Assay [9] deals with RFP-positive miR124-RFP/Brn2 human fibroblast-derived cells. As to the kind of experiment: Patch clamp electrophysiology of STRC2-treated miR124-RFP/Brn2 cells. It counts as cell-based.

pEC50, pIC50, pKi: −log10 of the molar value. Where two headings read alike, the source gives them in different places. Bounds are passed on as bounds.

T1 sequence (Q14833 33-912): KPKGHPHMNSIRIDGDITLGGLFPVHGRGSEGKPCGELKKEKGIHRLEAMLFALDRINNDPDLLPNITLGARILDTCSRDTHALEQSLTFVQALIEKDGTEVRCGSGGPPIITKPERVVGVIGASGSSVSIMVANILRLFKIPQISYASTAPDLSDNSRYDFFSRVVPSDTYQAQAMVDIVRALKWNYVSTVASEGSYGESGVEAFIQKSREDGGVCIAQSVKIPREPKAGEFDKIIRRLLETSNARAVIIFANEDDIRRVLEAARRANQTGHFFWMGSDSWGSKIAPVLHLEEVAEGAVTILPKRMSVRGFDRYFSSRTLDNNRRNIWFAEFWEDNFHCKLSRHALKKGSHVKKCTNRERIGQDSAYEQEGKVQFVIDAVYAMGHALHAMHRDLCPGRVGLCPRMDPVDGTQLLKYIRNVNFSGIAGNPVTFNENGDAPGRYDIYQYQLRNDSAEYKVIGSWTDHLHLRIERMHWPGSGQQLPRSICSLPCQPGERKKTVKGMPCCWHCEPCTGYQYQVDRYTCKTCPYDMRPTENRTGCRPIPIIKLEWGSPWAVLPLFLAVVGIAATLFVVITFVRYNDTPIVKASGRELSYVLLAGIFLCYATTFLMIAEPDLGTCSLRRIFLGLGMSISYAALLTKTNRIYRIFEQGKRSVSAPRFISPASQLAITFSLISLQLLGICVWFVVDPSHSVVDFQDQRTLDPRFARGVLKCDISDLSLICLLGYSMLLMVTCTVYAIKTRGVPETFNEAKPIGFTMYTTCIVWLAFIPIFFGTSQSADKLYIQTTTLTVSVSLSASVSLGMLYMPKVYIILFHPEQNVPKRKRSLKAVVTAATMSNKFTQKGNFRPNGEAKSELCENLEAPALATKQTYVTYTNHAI
adenylate cyclase 1, sequence (Q08828 whole entry): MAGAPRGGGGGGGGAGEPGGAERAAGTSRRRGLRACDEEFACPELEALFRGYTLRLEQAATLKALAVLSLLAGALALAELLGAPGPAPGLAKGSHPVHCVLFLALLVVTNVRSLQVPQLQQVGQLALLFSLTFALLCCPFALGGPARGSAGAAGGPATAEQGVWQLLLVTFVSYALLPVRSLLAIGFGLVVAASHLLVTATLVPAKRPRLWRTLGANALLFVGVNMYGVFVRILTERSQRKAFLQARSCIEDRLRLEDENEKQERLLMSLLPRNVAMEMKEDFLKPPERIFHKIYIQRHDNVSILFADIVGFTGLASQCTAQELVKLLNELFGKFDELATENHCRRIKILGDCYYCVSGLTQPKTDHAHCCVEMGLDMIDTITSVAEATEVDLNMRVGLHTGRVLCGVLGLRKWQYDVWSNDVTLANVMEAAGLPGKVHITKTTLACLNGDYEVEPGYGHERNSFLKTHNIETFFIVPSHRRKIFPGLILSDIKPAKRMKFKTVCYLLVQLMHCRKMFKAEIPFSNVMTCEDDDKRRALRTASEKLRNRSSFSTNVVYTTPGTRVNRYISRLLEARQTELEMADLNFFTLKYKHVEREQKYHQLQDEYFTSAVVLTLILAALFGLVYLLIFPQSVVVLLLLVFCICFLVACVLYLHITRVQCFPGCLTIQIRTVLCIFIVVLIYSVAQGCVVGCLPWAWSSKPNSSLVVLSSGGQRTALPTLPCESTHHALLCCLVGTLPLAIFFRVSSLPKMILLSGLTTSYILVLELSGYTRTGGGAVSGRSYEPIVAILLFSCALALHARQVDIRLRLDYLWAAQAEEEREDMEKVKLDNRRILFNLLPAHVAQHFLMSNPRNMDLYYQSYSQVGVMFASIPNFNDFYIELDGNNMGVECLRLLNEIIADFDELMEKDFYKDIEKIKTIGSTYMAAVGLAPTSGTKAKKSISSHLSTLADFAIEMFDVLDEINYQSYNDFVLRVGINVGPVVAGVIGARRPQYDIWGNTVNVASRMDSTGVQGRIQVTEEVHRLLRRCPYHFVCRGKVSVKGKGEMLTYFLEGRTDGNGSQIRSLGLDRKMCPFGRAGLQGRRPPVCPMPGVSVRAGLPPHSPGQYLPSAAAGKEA

For orientation: pEC50 means the EC50 on a negative log10 scale, so that one unit is a factor of ten. `O=C(Nc1cc(Cl)cc(Cl)c1)[C@H]1CCCC[C@H]1C(=O)O` (relative stereo) [VU0155041, cis-2-[[(3,5-dichlorophenyl)amino]carbonyl]cyclohexanecarboxylic acid]: at mGlu4 [1], the pEC50 was 6.00.

For `N[C@@]1(C(=O)O)CC[C@@H](C(=O)O)C1` [ACPD, (1S,3R)-1-aminocyclopentane-1,3-dicarboxylic acid], the “induction of Tau-EGFP expression and neuronal morphology (screen hit)” value in assay [2] was “induce Tau-EGFP expression and a neuronal morphology”. Also, the pEC50 on mGlu receptors is 4.40 to 5.05.

In general, pIC50 refers to the negative decadic logarithm of the IC50, by convention in mol/L. Consider `Nc1ccccc1NC(=O)CCCCCCC(=O)Nc1ccccc1` [BML-210, N1-(2-aminophenyl)-N8-phenyl-octanediamide], for which the pIC50 in assay [3] is roughly 4.10.

Turning to `CCOc1ccccc1C(=O)Nc1ccc(Cl)c(C(F)(F)F)c1` [CTB, N-(4-chloro-3-trifluoromethyl-phenyl)-2-ethoxybenzamide], in assay [4], the “activity as p300 activator relative to CTPB” value was “comparable or higher activity”.

`CC1(C)NC(=O)C(CCCCCC(=O)[C@H]2CO2)NC(=O)C2CCCN2C(=O)[C@@H](Cc2ccccc2)NC1=O` (stereo partly drawn) [Chlamydocin, (3R)-3-benzyl-6,6-dimethyl-9-[6-[(2R)-oxiran-2-yl]-6-oxohexyl]-1,4,7,10-tetrazabicyclo[10.3.0]pentadecane-2,5,8,11-tetrone]: in assay [5] (isoform not stated), the pIC50 is roughly 9.82.

`NC(=O)c1ccc(-c2nc(-c3ccc4c(c3)OCCO4)c(-c3ccccn3)[nH]2)cc1` [D 4476, 4-[4-(2,3-Dihydro-1,4-benzodioxin-6-yl)-5-(2-pyridinyl)-IH-imidazol-2-yl]benzamide]: the “selectivity over SAPK2/p38” value at SAPK2/p38 was “greater than 20 fold”.

In the case of `C=C[C@@]1(C)CC(=O)[C@]2(O)[C@@]3(C)[C@@H](O)CCC(C)(C)[C@@H]3[C@H](O)[C@H](OC(C)=O)[C@@]2(C)O1` [Forskolin], the pIC50 on adenylate cyclase 1 was 6.82 to 7.40.

With `N[C@@]1(C(=O)O)CC[C@H]2[C@H](C(=O)O)[C@H]21` [LY354740, 1S,2S,5R,6S-2-aminobicyclo[3.1.0]hexane-2,6-dicarboxylate], in assay [6], the pIC50 is roughly 6.60.

Broadly, the pKi is the Ki on a negative log10 scale, so that one unit is a factor of ten. In the case of `N[C@@]1(C(=O)O)COC2C1[C@H]2C(=O)O` (stereo partly drawn) [LY379268, (4R,6R)-4-amino-2-oxabicyclo[3.1.0]hexane-4,6-dicarboxylic acid], the pKi on various mGlu receptors was 4.00 to 8.57.

For `NC1(C(=O)O)CC(F)C2C(C(=O)O)C21` (stereo not shown) [LY459477, 2-amino-4-fluorobicyclo[3.1.0]hexane-2,6-dicarboxylic acid], in the assay on mGlu(3) receptors, the “potency for mGlu(3) receptors” value is 1 to 2 nM. Also, the “potency for mGlu(2) receptors” value with mGlu(2) receptors was 1 to 2 nM.

Consider `NC(=O)[C@@H]1CCCC[C@@H]1C(=O)Nc1ccc(Cl)c(Cl)c1` [Lu AF21934, (1S,2R)-N1-(3,4-dichlorophenyl)cyclohexane-1,2-dicarboxamide], for which, at mGlu4 [1], the pEC50 is 6.30.

As to `NC(=O)[C@H]1CCCC[C@H]1C(=O)Nc1ccc(Cl)c(Cl)c1` [Lu AF21935, (1R,2S)-N1-(3,4-dichlorophenyl)cyclohexane-1,2-dicarboxamide], the pEC50 at mGlu4 [1] was less than 5.00.

Turning to `Nc1ccccc1NC(=O)c1ccc(CNc2nccc(-c3cccnc3)n2)cc1` [MGCD0103, N-(2-aminophenyl)-4-[[(4-pyridin-3-ylpyrimidin-2-yl)amino]methyl]benzamide], the pIC50 in [5] (isoform not stated) is roughly 7.00.

`COc1cc(NC(=O)c2ccccn2)ccc1Cl` [ML128, N-(4-chloro-3-methoxyphenyl)pyridine-2-carboxamide]: the negative logarithm of the EC50 (pEC50) on mGlu4 [7] was 5.64 to 6.70.

Turning to `Nc1ccccc1NC(=O)c1ccc(CNC(=O)OCc2cccnc2)cc1` [MS-27-275, pyridin-3-ylmethyl-N-[[4-[(2-aminophenyl)carbamoyl]phenyl]methyl]carbamate], the pIC50 in [5] is 6.00 to 7.00.

For `NS(=O)(=O)c1cccc2c1c([N+](=O)[O-])cc1nc(O)c(O)nc12` [NBQX, 2,3-dihydroxy-6-nitro-7-sulfamoylbenzo quinoxaline], the “effect on spontaneous excitatory postsynaptic current (sEPSC)” value in [8] (AMPA receptor antagonist, 10 μM) is reported as “blocked”.

For `NC1=N[C@H](O)[C@H]2[C@H]3O[C@]4(O)O[C@@H]([C@@H](O)[C@@]2(N1)[C@@H]4O)[C@]3(O)CO` [TTX, tetrodotoxin], the “effect on trains of action potentials” value in assay [9] is on record as “abolished”.

With `CC(/C=C/C(=O)NO)=C\[C@@H](C)C(=O)c1ccc(N(C)C)cc1` [Trichostatin A, (R,2E,4E)-6-(4-(dimethylamino)benzoyl)-N-hydroxy-4-methylhepta-2,4-dienamide], the “induction of Tau-EGFP expression and neuronal morphology (screen hit)” value in [2] is “induce Tau-EGFP expression and a neuronal morphology”. Also, the negative-log IC50 (pIC50) in assay [5] was roughly 8.74.

For the molecule picrotoxin, in [8] (GABAA receptor antagonist, 50 μM), the “effect on inhibitory postsynaptic currents (sIPSCs)” value is reported as “blocked”.

Values taken from patent publication US10500232B2, “Small molecule cellular reprogramming to generate neuronal cells” (The J. David Gladstone Institutes, a testamentary trust …, priority 2013, dated 2019).
